Reference: the supplement of paper PMC11616607

What was measured:
Assay in all cases: drug sensitivity score (DSS) from 5-point dose-response viability curve (DSS (area-under-curve based score)); higher = more sensitive (stronger growth inhibition or killing); extreme values may be limits of the assay
Details in all cases: exposure time: 72 h; concentration range: 5 concentrations over 10,000-fold range
CAOV3 = system: CAOV3
Procedure, shortened: (§1)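 Ovarian cancer and normal ovarian cell lines were tested in 384-well plates, with drugs dispensed acoustically (Echo 550) in DMSO or water at five concentrations covering a 10,000-fold range. After 1,500 cells per well were added, plates were incubated for 3 days at 37°C and 5% CO2, and viability was read by CellTiter-Glo luminescence on a PHERAstar FS. Breeze software gave a drug sensitivity score for each cell line and drug, where a higher score means greater sensitivity. A value of zero means no response.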

COV318 = system: COV318
Procedure, shortened: as §1

COV362 = system: COV362
Procedure, shortened: as §1

HOSE1C = system: HOSE1C
Procedure, shortened: as §1

HOSE2C = system: HOSE2C
Procedure, shortened: as §1

JHOS2 = system: JHOS2
Procedure, shortened: as §1

Kuramochi = system: Kuramochi
Procedure, shortened: as §1

OV90 = system: OV90
Procedure, shortened: as §1

OVCAR4 = system: OVCAR4
Procedure, shortened: as §1

OVCAR5 = system: OVCAR5
Procedure, shortened: as §1

OVCAR8 = system: OVCAR8
Procedure, shortened: as §1

Ovsaho = system: Ovsaho
Procedure, shortened: as §1

Row | Structure (SMILES) | drug sensitivity score (CAOV3) | drug sensitivity score (COV318) | drug sensitivity score (COV362) | drug sensitivity score (HOSE1C) | drug sensitivity score (HOSE2C) | drug sensitivity score (JHOS2) | drug sensitivity score (Kuramochi) | drug sensitivity score (OV90) | drug sensitivity score (OVCAR4) | drug sensitivity score (OVCAR5) | drug sensitivity score (OVCAR8) | drug sensitivity score (Ovsaho)
1 | CC(=O)[C@]1(O)Cc2c(O)c3c(c(O)c2[C@@H](O[C@H]2C[C@H](N)[C@H](O)[C@H](C)O2)C1)C(=O)c1ccccc1C3=O [Idarubicin] | 12 | 6.1 | 4.8 | 14.2 | 13.7 | 7.1 | 5.1 | 10.7 | 6.3 | 7.7 | 10.3 | 11.7
2 | COc1cc(C(=O)O)ccc1NC(=O)[C@@H]1N[C@@H](CC(C)(C)C)[C@](C#N)(c2ccc(Cl)cc2F)[C@H]1c1cccc(Cl)c1F [Idasanutlin] | 0 | 0 | 0 | 16 | 10.5 | 0 | 0 | 0 | 1.2 | 0.7 | 3.3 | 0
3 | CC[C@H](Nc1ncnc2[nH]cnc12)c1nc2cccc(F)c2c(=O)n1-c1ccccc1 [Idelalisib] | 0.8 | 0.7 | 1.3 | 0.1 | 1 | 0.9 | 5.8 | 0 | 2.3 | 2.7 | 0.2 | 5.7
4 | CC(C)Cn1cnc2c(N)nc3ccccc3c21 [Imiquimod] | 0 | 0 | 0 | 0 | 0 | 0.5 | 0 | 0 | 0 | 0 | 0.1 | 0
5 | O=C(Nc1ccncc1)C(=O)c1cn(Cc2ccc(Cl)cc2)c2ccccc12 [Indibulin] | 7.2 | 2.5 | 1.8 | 20.1 | 18.3 | 6.8 | 7.2 | 5.9 | 5.5 | 5.7 | 6.4 | 7.9
6 | CCN1CCN(c2ccc(Nc3cc(N(C)C(=O)Nc4c(Cl)c(OC)cc(OC)c4Cl)ncn3)cc2)CC1 [Infigratinib] | 0 | 0 | 0 | 0 | 0 | 0 | 0 | 0 | 0 | 0 | 0 | 0
7 | CC(C)NC[C@@H](C(=O)N1CCN(c2ncnc3c2[C@H](C)C[C@H]3O)CC1)c1ccc(Cl)cc1 [Ipatasertib] | 1.9 | 0.1 | 0 | 2.7 | 4.4 | 0.1 | 2.6 | 0.5 | 0 | 3 | 0.5 | 1.6
8 | CCC(C)n1ncn(-c2ccc(N3CCN(c4ccc(OCC5COC(Cn6cncn6)(c6ccc(Cl)cc6Cl)O5)cc4)CC3)cc2)c1=O (centres undefined) [Itraconazole] | 0 | 0.9 | 0.6 | 0 | 0 | 0.2 | 1.1 | 4.1 | 2.1 | 5.9 | 1.9 | 0.2
9 | N#Cc1ccnc(N2C(=O)CC[C@H]2C(=O)N(c2cncc(F)c2)[C@H](C(=O)NC2CC(F)(F)C2)c2ccccc2Cl)c1 [Ivosidenib] | 0 | 0 | 0 | 0 | 0 | 0 | 0 | 0.3 | 0.1 | 0.6 | 0 | 0
10 | C/C(=C\c1csc(C)n1)[C@@H]1C[C@@H]2O[C@]2(C)CCC[C@H](C)[C@H](O)[C@@H](C)C(=O)C(C)(C)[C@@H](O)CC(=O)N1 [Ixabepilone] | 4.6 | 2.9 | 1.3 | 1.6 | 2 | 2.7 | 2.6 | 2.4 | 2.1 | 4.5 | 5.2 | 2
11 | CC(C)C[C@H](NC(=O)CNC(=O)c1cc(Cl)ccc1Cl)B(O)O [Ixazomib] | 11.6 | 16.4 | 10.5 | 7.4 | 7.8 | 10.6 | 2.7 | 5.5 | 6.5 | 10.4 | 9 | 7
12 | Nc1cc(COc2c(Cl)cc(C[C@H](N)C(=O)O)cc2Cl)c2oc(-c3ccccc3)nc2c1 [JPH203] | 0 | 0 | 0 | 0 | 0 | 0 | 0 | 0 | 0.2 | 7.5 | 0 | 0
13 | CC(C)NC(=O)COc1cccc(-c2nc(Nc3ccc4[nH]ncc4c3)c3ccccc3n2)c1 [KD025] | 0.4 | 0 | 0.5 | 0 | 0 | 1.2 | 3.8 | 8.7 | 3.6 | 2 | 8.2 | 1.9
14 | CS(=O)(=O)CCNCc1ccc(-c2ccc3ncnc(Nc4ccc(OCc5cccc(F)c5)c(Cl)c4)c3c2)o1 [Lapatinib] | 2.4 | 0 | 0 | 0 | 0 | 0 | 0 | 0 | 0 | 0.7 | 0 | 0
15 | O=C(Nc1cnn2ccc(N3CCC[C@@H]3c3cc(F)ccc3F)nc12)N1CC[C@H](O)C1 [Larotrectinib] | 0 | 0 | 0 | 0 | 0 | 0 | 0 | 0 | 0 | 0 | 0 | 0
16 | Oc1ccc2c(c1)CC[C@H](c1ccccc1)[C@@H]2c1ccc(OCCN2CCCC2)cc1 [Lasofoxifene] | 0 | 0 | 0 | 0 | 0 | 0 | 0.3 | 0 | 0 | 0 | 0 | 0
17 | Nc1cccc2c1CN(C1CCC(=O)NC1=O)C2=O (centres undefined) [Lenalidomide] | 0 | 0 | 0 | 0 | 0 | 0.1 | 0.2 | 0 | 0 | 0 | 0 | 0
18 | COc1cc2nccc(Oc3ccc(NC(=O)NC4CC4)c(Cl)c3)c2cc1C(N)=O [Lenvatinib] | 0 | 0.9 | 0 | 0.4 | 2.9 | 0.1 | 0 | 0.1 | 0.6 | 0 | 0 | 0.1
19 | N#Cc1ccc(C(c2ccc(C#N)cc2)n2cncn2)cc1 [Letrozole] | 0 | 0 | 0 | 0 | 0 | 0 | 0 | 0 | 0 | 0 | 0 | 0
20 | Cc1ccc(F)c(NC(=O)Nc2ccc(-c3cccc4[nH]nc(N)c34)cc2)c1 [Linifanib] | 0 | 0.2 | 0 | 0 | 0 | 0 | 0 | 0 | 0 | 0 | 0 | 0
21 | C[C@]1(O)C[C@@H](c2nc(-c3ccc4ccc(-c5ccccc5)nc4c3)c3c(N)nccn32)C1 [Linsitinib] | 1.4 | 0 | 0 | 0.7 | 2 | 0 | 0 | 0.9 | 0 | 2.7 | 0.3 | 0
22 | CCNCCS(=O)(=O)NC[C@@]1(c2ccccc2)SC(NC(=O)C(C)(C)C)=NN1C(=O)C(C)(C)C [Litronesib] | 23.2 | 3.4 | 1.1 | 25 | 16.7 | 6.1 | 7.5 | 11.6 | 4.9 | 19 | 18.4 | 7.8
23 | Nc1nc(OCc2cc(Br)cs2)c2[nH]cnc2n1 [Lomeguatrib] | 0 | 0.4 | 0 | 0 | 0 | 0 | 0.8 | 0 | 0 | 0 | 0 | 2.5
24 | NC(=O)N1CCC(CC(=O)N2CCC([C@H]3c4ncc(Br)cc4CCc4cc(Cl)cc(Br)c43)CC2)CC1 [Lonafarnib] | 8.9 | 9.2 | 1.9 | 8 | 8.9 | 8.4 | 11 | 15.8 | 9.1 | 9.1 | 9.4 | 9.8
25 | Cc1c(F)cc(C(=O)NC2CC2)cc1-c1ccc(C(=O)NCC(C)(C)C)cn1 [Losmapimod] | 0 | 0.4 | 0 | 0 | 0 | 0 | 2 | 1.5 | 0 | 0.9 | 0.2 | 0.7
26 | CC[C@H](C)C(=O)O[C@H]1C[C@@H](C)C=C2C=C[C@H](C)[C@H](CC[C@@H]3C[C@@H](O)CC(=O)O3)[C@H]21 [Lovastatin] | 0 | 0 | 0.1 | 7.5 | 7.8 | 0 | 0.3 | 1.3 | 0.2 | 0.8 | 1.7 | 0.7
27 | CNC(=O)c1cccc2cc(Oc3ccnc4cc(OCC5(N)CC5)c(OC)cc34)ccc12 [Lucitanib] | 0 | 2.3 | 0 | 1.5 | 5.9 | 0.4 | 0.1 | 1.1 | 2.4 | 1.6 | 2.3 | 0.8
